Results from patent US20140200825A1, “Method for predicting whether a cancer patient will not benefit from platinum-based chemotherapy agents” (Biodesix, Inc., priority 2012, published 2014).

Tests used:
Assay type in all cases: in vivo, human
NSCLC = assay: Subgroup of NSCLC patients treated with docetaxel, overall survival by VeriStrat group; conditions: between VeriStrat Good and VeriStrat Poor patients, FIG. 6
Description: FIG. 6 is a Kaplan-Meier plot of overall survival for a subgroup analysis of one of the cohorts studied in Taguchi et al., Mass spectrometry to classify non-small-cell lung cancer patients for clinical outcome after treatment with epidermal growth factor receptor tyrosine kinase inhibitors: a multicohort cross-institutional study.
Given our previous experience with VeriStrat separation in NSCLC and other cancers, we believe that the difference shown in FIGS. 1-4 and 7A-7B lies principally in the Poor group—i.e., that they probably benefit very little from the combination of gemcitabine+cisplatin (or possibly other combinations of chemotherapy based on a platinum agent), but can get outcomes similar to Good patients if they receive gemcitabine alone, or another non-platinum agent, for example, docetaxel. Our results in a subgroup of NSCLC patients treated with docetaxel show no difference in overall survival between VeriStrat Good and VeriStrat Poor patients (hazard ratio 1.03, p=0.95, see FIG. 6 for a Kaplan-Meier plot)

[1] = tested on: advanced non-small cell lung cancer (NSCLC); assay: LCCC0512 study, gemcitabine arm, outcome by VeriStrat group; conditions: for median PFS: NSCLC patients treated with gemcitabine alone
Protocol: The LCCC0512 study was a randomized phase II trial of first-line treatment with gemcitabine, erlotinib or the combination in elderly (over 70 years old) patients with advanced non-small cell lung cancer (NSCLC). Patients had stage IIIB or IV NSCLC and ECOG performance status of 0-2. Patients were randomized to receive either a maximum of 4 cycles of gemcitabine (1200 mg/m^2 days 1,8 every 21 days), 150 mg erlotinib daily, or a maximum of 4 cycles of gemcitabine (1000 mg/m^2 days 1,8 every 21 days) with concurrent 100 mg erlotinib daily. Primary endpoint was progression-free survival at 6 months. Patients randomized to receive gemcitabine monotherapy were encouraged to continue on study to receive erlotinib after progression. A total of 146 patients were enrolled. No significant differences in PFS or OS were found between treatment arms.
Pretreatment serum or plasma samples from patients in the LCCC0512 trial were available for VeriStrat testing. 124 samples were received. Sixty four samples were classified as VeriStrat Good, 39 as VeriStrat Poor and 7 as Indeterminate (undefined/equivocal classification). Of the remaining samples 13 could not be processed due to hemolysis and data could not be collected from one sample. For 5 samples where VeriStrat testing was performed, the samples could not be matched to clinical data from the trial. This left 98 samples with VeriStrat classification of Good or Poor and clinical data for statistical analysis. The majority of the samples tested were plasma, but where plasma was not available for a few patients, serum samples were used. Of the samples on which VeriStrat testing yielded a result of Good or Poor only 5 were identified as serum.
Survival analysis was carried out using SAS Enterprise Guide (SAS 9.2). Difference between groups was assessed using log-rank p values. Both univariate and multivariate hazard ratios were evaluated using Cox proportional hazard models. Kaplan-Meier plots and p values for contingency tables were generated using PRISM (GraphPad). For purposes of this disclosure, the data of interest pertain to the “gemcitabine” arm.

ovarian cancer = assay: Ovarian cancer study, carboplatin and paclitaxel after surgery, outcome by VeriStrat group
Protocol: The data shown in FIGS. 7A and 7B reflect VeriStrat testing on a subset of 96 patients from a larger study of about 160 patients. In this study, serum samples were taken from ovarian cancer patients before surgery and retrospectively analyzed with the VeriStrat test. After surgery, the patients were treated with carboplatin and paclitaxel.

[2] = between VeriStrat groups, gemcitabine alone

Compound: CC(=O)O[C@@]12CO[C@@H]1C[C@H](O)[C@@]1(C)C(=O)[C@H](O)C3=C(C)[C@@H](OC(=O)[C@H](O)[C@@H](NC(=O)OC(C)(C)C)c4ccccc4)C[C@@](O)([C@@H](OC(=O)c4ccccc4)[C@H]21)C3(C)C [docetaxel]
- hazard ratio, overall survival (NSCLC): 1.03

Compound: Nc1ccn([C@@H]2O[C@H](CO)[C@@H](O)C2(F)F)c(=O)n1 [gemcitabine]
- median PFS ([1]; VeriStrat Good group): 133 days
- median OS ([1]; VeriStrat Good group, gemcitabine alone): 201 days
- median PFS ([1]; VeriStrat Poor group): 137 days
- median OS ([1]; VeriStrat Poor group, gemcitabine alone): 197 days
- hazard ratio (HR), OS by VeriStrat group [1, 2]: 0.82
- hazard ratio (HR), PFS by VeriStrat group [1, 2]: 1.21

Compound: carboplatin and paclitaxel
- median disease free survival time (ovarian cancer; VeriStrat Good patients): 20 months
- median overall survival time (ovarian cancer; VeriStrat Good patients): undefined
- Hazard Ratio, disease free survival (ovarian cancer; VeriStrat Good vs Poor, FIG. 7A): 0.4906
- hazard ratio, overall survival (ovarian cancer; VeriStrat Good vs Poor, FIG. 7B): 0.3061
- median disease free survival time (ovarian cancer; VeriStrat Poor patients): 11 months
- median overall survival time (ovarian cancer; VeriStrat Poor patients): 21 months
